Measurements taken from US20150126364A1, “1,3-DIARYL-SUBSTITUTED HETEROCYCLIC PESTICIDES” (E I DU PONT DE NEMOURS AND COMPANY, priority 2012, published 2015).

Tested on: potato leafhopper (Empoasca fabae)
Assay: Test D: control of potato leafhopper on Soleil bean plant, contact and/or systemic
Type: in vivo
Conditions: 144 h, 6 days, very good to excellent control, read-out: control efficacy: mortality; for mortality at 250 ppm: sprayed at 250 ppm; for mortality at 50 ppm: sprayed at 50 ppm
Procedure: Test compounds were formulated using a solution containing 10% acetone, 90% water and 300 ppm X-77® Spreader Lo-Foam Formula non-ionic surfactant containing alkylarylpolyoxyethylene, free fatty acids, glycols and isopropanol (Loveland Industries, Inc. Greeley, Colo., USA). The formulated compounds were applied in 1 mL of liquid through a SUJ2 atomizer nozzle with ⅛ JJ custom body (Spraying Systems Co., Wheaton, Ill., USA) positioned 1.27 cm (0.5 inches) above the top of each test unit. Test compounds were sprayed at 250 ppm and/or 50 ppm, and replicated three times. After spraying of the formulated test compound, each test unit was allowed to dry for 1 h and then a black, screened cap was placed on top. The test units were held for 6 days in a growth chamber at 25° C. and 70% relative humidity. Plant feeding damage was then visually assessed based on foliage consumed.
For evaluating control of potato leafhopper (Empoasca fabae) through contact and/or systemic means, the test unit consisted of a small open container with a 5-6-day-old Soleil bean plant (primary leaves emerged) inside. White sand was added to the top of the soil and one of the primary leaves was excised prior to application.
Test compounds were formulated and sprayed at 250 ppm and/or 50 ppm, and the tests were replicated three times as described for Test A. After spraying, the test units were allowed to dry for 1 h before they were post-infested with 5 potato leafhoppers (18-21-day-old adults). A black, screened cap was placed on the top of each test unit, and the test units were held for 6 days in a growth chamber at 24° C. and 70% relative humidity. Each test unit was then visually assessed for insect mortality.

## Cn1c(-c2cccc(C(F)(F)F)c2)nc(CN2CCOCC2)c1-c1ccc(F)cc1F (single isomer, unassigned) [Compound 49, 4-[[5-(2,4-difluorophenyl)-1-methyl-2-[3-(trifluoromethyl)phenyl]-1H-imidazol-4-yl]methyl]morpholine]
  mortality at 250 ppm: ≥ 80%

## COC(=O)C1CCN(Cc2cc(-c3cccc(C(F)(F)F)c3)nn2-c2ccc(F)cc2)CC1 [Compound 6, methyl 1-[[1-(4-fluorophenyl)-3-[3-(trifluoromethyl)phenyl]-1H-pyrazol-5-yl]methyl]-4-piperidinecarboxylate]
  mortality at 50 ppm: ≥ 80%
  mortality at 250 ppm: ≥ 80%

## Fc1ccc(-c2[nH]c(-c3cccc(C(F)(F)F)c3)nc2CN2CCOCC2)c(F)c1 [Compound 44, 4-[[5-(2,4-difluorophenyl)-2-[3-(trifluoromethyl)phenyl]-1H-imidazol-4-yl]methyl]morpholine]
  mortality at 50 ppm: ≥ 80%
  mortality at 250 ppm: ≥ 80%

## CC(=O)NC1CCN(Cc2oc(-c3cccc(C(F)(F)F)c3)nc2-c2ccc(F)cc2)CC1 [Compound 65, N-[1-[[4-(4-fluorophenyl)-2-[3-(trifluoromethyl)phenyl]-5-oxazolyl]methyl]-4-piperidinyl]acetamide]
  mortality at 50 ppm: ≥ 80%
  mortality at 250 ppm: ≥ 80%

## N#CC1CCN(Cc2c(-c3ccc(F)cc3F)nc3n2CCc2ccc(Cl)cc2-3)CC1 [Compound 151]
  mortality at 250 ppm: ≥ 80%

## N#CC1CCN(Cc2c(-c3ccc(F)cc3F)nc3n2CCc2cc(Cl)ccc2-3)CC1 [Compound 155]
  mortality at 250 ppm: ≥ 80%
